Legend:
[1] = system: acetylcholine writhing; test: mouse acetylcholine writhing test (analgesic activity); type: in vivo, mouse (CD-1); conditions: 1 mg/kg oral, 4 hours before intraperitoneal acetylcholine; writhes counted for 10 minutes
Experimental: This study was performed to evaluate and compare the analgesic effectiveness of the micronized and pulverized samples described in Example 1, Step A and Example 1, Step B. Analgesic activity was evaluated via the mouse acetylcholine writhing test using a modification of the procedure described by Collier et al in Nature (New Biol.), Volume 204: page 1316 (1964) and the British Journal of Pharmacology, Chemotherapy, Volume 32: page 295 (1968).
The test groups consisted of ten mile CD-1 mice (Charles River Laboratories) weighing 18-28 grams each. Test compounds suspended in 0.25% methylcellulose solution were administered orally by gavage and four hours later the mice were injected intraperitoneally with acetylcholine (0.55 mg/ml in 0.25% methyl cellulose). The number of writhes in each group of mice were counted for 10 minutes immediately following the injection of acetylcholine and percent inhibition was calculated as follows: […]

[2] = system: hind paw edema; test: Anti-inflammatory activity: hind paw edema in adjuvant (Mycobacterium butyricum) arthritis rats; type: in vivo, rat (female Lewis); conditions: 1 mg/kg per day, dosed once daily for 4 days, paw volumes measured on fifth day
Experimental: The effectiveness of the micronized sample as an anti-inflammatory agent and its comparison to the pulverized form was evaluated.
This study is a modification of the method described by Wong, et al in the Journal of Pharmacology and Experimental Therapeutics, Vol. 185: No. 1, pages 127-138 (1973).
The left and right rear paws of female Lewis rats (Charles River Laboratories) weighing 160-180 grams each were measured by mercury displacement prior to injection (Day Zero).
Adjuvant arthritis was induced in this rat colony by subcutaneous injection of Mycobacterium butyricum (0.75 mg in 0.1 ml light mineral oil, Fisher) using an automated Cornwall syringe. On days 11-15 post-adjuvant, the injected animals with 0.25 to 0.76 ml paw edema were selected and distributed evenly, according to edema size, into control and experimental groups of ten rats each. Vehicle control and drug treatments were assigned to the groups at random. […] All animals were dosed once daily for 4 days and on the fifth day both hind paw volumes were again measured using mercury displacement.
The hind paw edema was determined for each rat by subtracting the hind paw volume measured on Day Zero from the hind paw volume measured on the fifth day of the study. Group means were determined and the drug effect was calculated as percent inhibition of the hind paw edema according to the following equation: […]

[3] = system: adjuvant polyarthritis; test: Adjuvant polyarthritis in polyarthritic injected rats (hind feet weight); type: in vivo, rat (male Lewis); conditions: for ED50: oral once daily for 5 days (Days 9-13), hind feet weighed Day 15, 21600 min
Experimental: The object of this study was to compare the anti-inflammatory activity of the micronized and unmicronized samples when administered orally to polyarthritic injected rats.
This anti-inflammatory study was conducted according to the method described by Chang, Y., Pearson, C.M. and Abe, C. in Arthritis and Rheumatism, Volume 23: pp. 62-71 (1980).
Male Lewis rats weighing 200 to 220 grams were divided into groups of 5 and housed in hanging cages with food and water ad libitum. On Day Zero they were injected with 7.5 mg of N,N-dioctadecyl-N',N'bis(2-hydroxyethyl)propane diamine suspended in mineral oil subcutaneously at the base of the tail. On Day 9 the animals were weighed and compound administration was begun. The micronized and unmicronized samples described in Example 1, Steps A and B, were suspended in solution using a tissue homogenizer in 1% carboxy methyl cellulose. These compounds were administered orally once daily for 5 days (Days 9-13) with no dosing on day 14. On Day 15, the hind feet were removed just above the ankle joint and weighed, and percent difference from the diseased control was calculated.

SMILES | % Inhibition (acetylcholine writhing assay) [1] | % Inhibition (hind paw edema) [2] | ED50 [3] | degree of increase in anti-inflammatory effectiveness attributable to micronization vs unmicronized product ([3]; general statement, test not named) | % Inhibition (hind paw edema) ([2]; listed as Example 1, Step B micronized) | increase in potency of micronized compared to unmicronized sample ([3]; ratio of ED50, adjuvant polyarthritis)
CN1OCCC(=Cc2cc(C(C)(C)C)c(O)c(C(C)(C)C)c2)C1=O [Example 1, Step B, dihydro-4-(3,5-di-tert-butyl-4-hydroxy-benzylidene)-2-methyl-2H-1,2-oxazin-3(4H)-one] | 63% | 20% | 16.2 mg/kg |  |  | 
CN1OCCC(=Cc2cc(C(C)(C)C)c(O)c(C(C)(C)C)c2)C1=O [active ingredient, dihydro-4-(3,5-di-tert-butyl-4-hydroxybenzylidene)-2-methyl-2H-1,2-oxazin-3(4H)-one] |  |  |  | at least six fold |  | 
CN1OCCC(=Cc2cc(C(C)(C)C)c(O)c(C(C)(C)C)c2)C1=O [Example 1, Step A, dihydro-4-(3,5-di-tert-butyl-4-hydroxy-benzylidene)-2-methyl-2H-1,2-oxazin-3(4H)-one] | 100% |  | 2.8 mg/kg |  | 35% | almost six fold increase in potency

Reference: US5271944A, “Pharmacologically enhanced formulations” (Biofor, Ltd., priority 1991, dated 1993)
